Key:
[1] = Description: Mixtures of MCT oil, egg phospholipids, ethanol, and SnEt2 were incubated with different bile salts, all at 4.6 mM^1, under the same conditions described above in Example 1.
[2] = tested on: transplantable, FANFT-induced, urothelial tumors; assay: photodynamic treatment of transplantable FANFT-induced urothelial tumors with SnEt2 emulsion and red light (Example 4); type: in vivo, Fischer 344 rats
Description: (§1) Fischer 344 rats, engrafted with transplantable, chemically-induced (FANFT) urothelial tumors, were treated with tin ethyl etiopurpurin (SnEt2) and red light (660 nm). SnEt2 was administered as a bolus injection via lateral tail vein, using the emulsion described by the present invention. Tumor response was assessed in groups of nine animals injected with one of four doses of drug and exposed to one of three different doses of light, as summarized in FIG. 1. Control animals received emulsion vehicle without drug. Animals were monitored for tumor re-growth, tissue changes at treatment site, and general health three times per week for a period of 30 days after light treatment.
By determining the number of tumor-free rats 30 days after each treatment, tumor dose-response curves for drug and light were generated, shown in FIG. 1.

[3] = general health / adverse events after drug-emulsion treatment (Example 4); type: in vivo, Fischer 344 rats; settings: i.v. bolus in emulsion plus red light, 30 days
Description: as §1

[4] = SnEt2 drug solubility in MCT oil with excipient combinations (Example 1); settings: invention emulsion
Description: After incubating for 30 minutes at 55° C., the tubes stand overnight at room temperature (19°-22° C). The tubes are centrifuged to remove bulk precipitates, and supernatants are filtered through 0.45 μm nylon membrane to remove any undissolved drug. Aliquots of filtrate are then diluted in chloroform:isopropyl alcohol (1:1) for spectrophotometric determination of drug concentration (absorbance at 662 nm). Reference standards are prepared with known concentrations of SnEt2 in the same solvent.

[5] = pH 8.0
Description: In particular, net electronegative charge (Zeta potential) on the emulsified oil droplets is measured by changes in electrophoretic mobility at pH 8.0 (Malvern Zetasizer 2c). […] A relationship between Zeta potential and physical stability of colloidal systems has been documented.

SMILES | SnEt2 Concentration [1] [mg/gm Oil] | SnEt2 Concentration Normalized [1] | dose and light response by the tumor ([2]; four drug doses, three light doses, 30 days) | tumor treatment outcome ([2]; i.v. bolus in emulsion, red laser light 660 nm, 30 days after treatment) | adverse clinical events [3] | deaths attributable to drug-emulsion treatment [3] | SnEt2 concentration delivered by the present invention relative to 0.08 mg/ml [4] | effect on Zeta potential of phospholipid-stabilized emulsions [5]
CCOC(=O)C1=Cc2c3nc(cc4nc(cc5[n-]c(cc6[n-]c2c(C)c6CC)c(C)c5CC)C(C)=C4CC)[C@@H](C)[C@]13CC.[Cl-].[Cl-].[Sn] (racemic) [SnEt2, Tin ethyl etiopurpurin] | 1.26 | 1.00 | A dose and light response by the tumor was demonstrated | effective in the treatment | No adverse clinical events were observed | no deaths occurred | over ten times | –
C[C@H](CCC(=O)O)[C@H]1CC[C@H]2[C@@H]3[C@H](O)C[C@@H]4C[C@H](O)CC[C@]4(C)[C@H]3C[C@H](O)[C@]12C [sodium cholate] | – | – | – | – | – | – | – | increases the Zeta potential

From patent US5616342A, “Emulsioin suitable for administering a poorly water-soluble photosensitizing compound and use thereof” (PDT, Inc., priority 1995, dated 1997)
